From PubChem BioAssay AID330 (DTP/NCI, 2004)
Several values for one entry are separate records, joined by “and”; a condition that tells them apart may be missing. Equal entries are not always repeated. Inconclusive results and toxic doses are left out.

Tested on: P388 leukemia ip, CD2F1 mice, survival T/C
Experiment: NCI In Vivo Anticancer Drug Screen. Data for tumor model P388 Leukemia (intraperitoneal) in CD2F1 (CDF1) mice
Conditions: endpoint: median survival time, higher = longer survival
Procedure, shortened: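 Mice carrying the transplanted tumor received test compound or vehicle. Survival was recorded in each group, and the value is the treated-group measurement divided by that of the vehicle-treated control group.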

[1] = dose: 50.0 mg/kg/injection, schedule: Q01DX005 (ip), vehicle: saline with Tween-80
[2] = dose: 100.0 mg/kg/injection, schedule: Q01DX005 (ip), vehicle: saline with Tween-80
[3] = dose: 60.0 mg/kg/injection, schedule: Q01DX005 (ip), vehicle: Klucel (hydroxypropylcellulose) (HPC)
[4] = dose: 100.0 mg/kg/injection, schedule: Q01DX009 (ip), vehicle: saline with Tween-80
[5] = dose: 200.0 mg/kg/injection, schedule: Q01DX009 (ip), vehicle: saline with Tween-80

## OCC[CH2][Pb]([c]1ccccc1)([c]1ccccc1)[c]1ccccc1
dose: 0.78 mg/kg/injection, schedule: Q01DX009 (ip), vehicle: Klucel (hydroxypropylcellulose) (HPC)
  T/C: 98 % of control and 105 % of control
dose: 1.56 mg/kg/injection, schedule: Q01DX009 (ip), vehicle: Klucel (hydroxypropylcellulose) (HPC)
  T/C: 100 % of control and 104 % of control and 111 % of control
dose: 3.13 mg/kg/injection, schedule: Q01DX009 (ip), vehicle: Klucel (hydroxypropylcellulose) (HPC)
  T/C: 104 % of control and 110 % of control and 112 % of control
dose: 6.25 mg/kg/injection, schedule: Q01DX009 (ip), vehicle: Klucel (hydroxypropylcellulose) (HPC)
  T/C: 113 % of control and 118 % of control

## COc1cc(C2NC(=S)NC2=S)ccc1O (centres undefined)
dose: 25.0 mg/kg/injection, schedule: Q04DX003 (ip), vehicle: saline with Tween-80
  T/C: 109 % of control
dose: 50.0 mg/kg/injection, schedule: Q04DX003 (ip), vehicle: saline with Tween-80
  T/C: 104 % of control
dose: 100.0 mg/kg/injection, schedule: Q04DX003 (ip), vehicle: saline with Tween-80
  T/C: 109 % of control

## COC(=O)C(NC(=O)C(CO)N1C(=O)c2ccccc2C1=O)c1ccccc1 (centres undefined)
[1]
  T/C: 99 % of control
[2]
  T/C: 98 % of control

## CCN(CC)CCCNc1ccc([N+](=O)[O-])c2no[n+]([O-])c12
dose: 50.0 mg/kg/injection, schedule: Q01DX009 (ip), vehicle: saline
  T/C: 99 % of control
dose: 100.0 mg/kg/injection, schedule: Q01DX009 (ip), vehicle: saline
  T/C: 100 % of control

## CC(=O)OC1CC2C(=S)Nc3cc4c(cc3C(=O)N2C1)OCO4 (centres undefined)
[1]
  T/C: 92 % of control
[2]
  T/C: 91 % of control
dose: 200.0 mg/kg/injection, schedule: Q01DX005 (ip), vehicle: saline with Tween-80
  T/C: 89 % of control

## O=NNc1nc2ncccc2cc1-c1ccccc1Cl
dose: 3.12 mg/kg/injection, schedule: Q01DX009 (ip), vehicle: water
  T/C: 110 % of control and 111 % of control and 124 % of control
dose: 6.25 mg/kg/injection, schedule: Q01DX009 (ip), vehicle: water
  T/C: 111 % of control
dose: 12.5 mg/kg/injection, schedule: Q01DX009 (ip), vehicle: water
  T/C: 108 % of control and 113 % of control
dose: 25.0 mg/kg/injection, schedule: Q01DX009 (ip), vehicle: water
  T/C: 94 % of control and 95 % of control

## CC1CC(C)CN(C)C1 (centres undefined)
dose: 50.0 mg/kg/injection, schedule: Q01DX005 (ip), vehicle: saline
  T/C: 100 % of control
dose: 100.0 mg/kg/injection, schedule: Q01DX005 (ip), vehicle: saline
  T/C: 100 % of control

## COc1ccc2c(c1)[C@@]13CCCC[C@H]1[C@@H](C2)[N+](C)=CC3=NO
[3]
  T/C: 105 % of control

## CC1OC(=Nc2ccccc2)NC1=O (centres undefined)
dose: 100.0 mg/kg/injection, schedule: Q01DX001 (ip), vehicle: saline with Tween-80
  T/C: 97 % of control
dose: 200.0 mg/kg/injection, schedule: Q01DX001 (ip), vehicle: saline with Tween-80
  T/C: 89 % of control

## CCOC(=O)c1ccc(NC(=S)NC(=O)c2cccc(Br)c2)cc1
dose: 60.0 mg/kg/injection, schedule: Q01DX005 (ip), vehicle: saline with Tween-80
  T/C: 95 % of control
dose: 120.0 mg/kg/injection, schedule: Q01DX005 (ip), vehicle: saline with Tween-80
  T/C: 95 % of control
dose: 240.0 mg/kg/injection, schedule: Q01DX005 (ip), vehicle: saline with Tween-80
  T/C: 90 % of control

## CC(=O)Nc1ccc(Nc2nc(Cl)nc(Nc3ccc(NC(C)=O)cc3)n2)cc1
dose: 30.0 mg/kg/injection, schedule: Q01DX005 (ip), vehicle: Klucel (hydroxypropylcellulose) (HPC)
  T/C: 100 % of control
[3]
  T/C: 89 % of control and 97 % of control
dose: 120.0 mg/kg/injection, schedule: Q01DX005 (ip), vehicle: Klucel (hydroxypropylcellulose) (HPC)
  T/C: 93 % of control
dose: 240.0 mg/kg/injection, schedule: Q01DX005 (ip), vehicle: Klucel (hydroxypropylcellulose) (HPC)
  T/C: 89 % of control

## COC(=O)C1=C/CCCN(CCc2ccccc2)/C=C\1C(=O)OC
dose: 100.0 mg/kg/injection, schedule: Q01DX001 (ip), vehicle: alcohol
  T/C: 103 % of control
dose: 200.0 mg/kg/injection, schedule: Q01DX001 (ip), vehicle: alcohol
  T/C: 101 % of control
dose: 400.0 mg/kg/injection, schedule: Q01DX001 (ip), vehicle: alcohol
  T/C: 97 % of control

## Oc1c(-c2ccccc2)cc(-c2ccc(Br)cc2)c(-c2ccc(Br)cc2)c1-c1ccccc1
dose: 12.5 mg/kg/injection, schedule: Q01DX009 (ip), vehicle: saline with Tween-80
  T/C: 107 % of control
dose: 25.0 mg/kg/injection, schedule: Q01DX009 (ip), vehicle: saline with Tween-80
  T/C: 95 % of control
dose: 50.0 mg/kg/injection, schedule: Q01DX009 (ip), vehicle: saline with Tween-80
  T/C: 98 % of control
[4]
  T/C: 105 % of control
[5]
  T/C: 96 % of control

## O=C(CCl)C(c1ccc([N+](=O)[O-])cc1)c1ccc([N+](=O)[O-])cc1
[4]
  T/C: 100 % of control
[5]
  T/C: 95 % of control
dose: 400.0 mg/kg/injection, schedule: Q01DX009 (ip), vehicle: saline with Tween-80
  T/C: 118 % of control

## O=c1[nH]c2n[nH]c(=S)n2c2c1CCC2
dose: 50.0 mg/kg/injection, schedule: Q04DX002 (ip), vehicle: saline with Tween-80
  T/C: 99 % of control
dose: 100.0 mg/kg/injection, schedule: Q04DX002 (ip), vehicle: saline with Tween-80
  T/C: 97 % of control
dose: 200.0 mg/kg/injection, schedule: Q04DX002 (ip), vehicle: saline with Tween-80
  T/C: 99 % of control
